According to ChEMBL document CHEMBL1146208, “Discovery and optimization of novel, non-steroidal glucocorticoid receptor modulators” (Bioorg Med Chem Lett, 2007):
pKi: −log10 of the molar value.

Assays:
[1] = molecular target: T1, Mineralocorticoid receptor (Homo sapiens, UniProt P08235); assay: biochemical
T1 sequence (P08235 whole entry): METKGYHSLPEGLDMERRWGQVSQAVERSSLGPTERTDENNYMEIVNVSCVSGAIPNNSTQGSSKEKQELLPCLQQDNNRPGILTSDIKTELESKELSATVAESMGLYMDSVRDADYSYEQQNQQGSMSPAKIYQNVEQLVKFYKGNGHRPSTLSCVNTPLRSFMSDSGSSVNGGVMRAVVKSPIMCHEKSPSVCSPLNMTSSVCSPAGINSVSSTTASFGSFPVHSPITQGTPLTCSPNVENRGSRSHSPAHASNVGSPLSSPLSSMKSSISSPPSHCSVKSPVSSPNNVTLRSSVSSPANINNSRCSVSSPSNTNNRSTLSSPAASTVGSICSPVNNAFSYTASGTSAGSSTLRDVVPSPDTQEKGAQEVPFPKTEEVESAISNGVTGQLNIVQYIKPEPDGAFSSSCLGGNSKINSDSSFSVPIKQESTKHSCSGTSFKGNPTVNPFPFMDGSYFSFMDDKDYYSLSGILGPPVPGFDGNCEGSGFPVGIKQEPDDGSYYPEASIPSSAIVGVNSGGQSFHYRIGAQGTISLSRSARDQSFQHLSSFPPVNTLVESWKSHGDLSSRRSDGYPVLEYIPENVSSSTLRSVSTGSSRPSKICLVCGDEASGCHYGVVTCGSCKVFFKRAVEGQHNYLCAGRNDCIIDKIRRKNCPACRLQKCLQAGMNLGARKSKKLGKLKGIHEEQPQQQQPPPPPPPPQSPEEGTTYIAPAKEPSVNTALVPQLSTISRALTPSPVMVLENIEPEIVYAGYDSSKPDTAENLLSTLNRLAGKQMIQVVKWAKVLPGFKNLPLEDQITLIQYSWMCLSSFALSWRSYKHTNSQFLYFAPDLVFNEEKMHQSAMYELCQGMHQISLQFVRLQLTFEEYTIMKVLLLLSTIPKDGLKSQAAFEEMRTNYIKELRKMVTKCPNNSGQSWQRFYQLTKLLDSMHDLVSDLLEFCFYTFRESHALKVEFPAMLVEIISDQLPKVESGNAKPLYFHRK
Description: Displacement of [3H]aldosterone from mineralocorticoid receptor expressed in Sf9 cells

Progesterone receptor = molecular target: T2, Progesterone receptor (Homo sapiens, UniProt P06401); assay: Displacement of [3H]progesterone from progesterone receptor
T2 sequence (P06401 whole entry): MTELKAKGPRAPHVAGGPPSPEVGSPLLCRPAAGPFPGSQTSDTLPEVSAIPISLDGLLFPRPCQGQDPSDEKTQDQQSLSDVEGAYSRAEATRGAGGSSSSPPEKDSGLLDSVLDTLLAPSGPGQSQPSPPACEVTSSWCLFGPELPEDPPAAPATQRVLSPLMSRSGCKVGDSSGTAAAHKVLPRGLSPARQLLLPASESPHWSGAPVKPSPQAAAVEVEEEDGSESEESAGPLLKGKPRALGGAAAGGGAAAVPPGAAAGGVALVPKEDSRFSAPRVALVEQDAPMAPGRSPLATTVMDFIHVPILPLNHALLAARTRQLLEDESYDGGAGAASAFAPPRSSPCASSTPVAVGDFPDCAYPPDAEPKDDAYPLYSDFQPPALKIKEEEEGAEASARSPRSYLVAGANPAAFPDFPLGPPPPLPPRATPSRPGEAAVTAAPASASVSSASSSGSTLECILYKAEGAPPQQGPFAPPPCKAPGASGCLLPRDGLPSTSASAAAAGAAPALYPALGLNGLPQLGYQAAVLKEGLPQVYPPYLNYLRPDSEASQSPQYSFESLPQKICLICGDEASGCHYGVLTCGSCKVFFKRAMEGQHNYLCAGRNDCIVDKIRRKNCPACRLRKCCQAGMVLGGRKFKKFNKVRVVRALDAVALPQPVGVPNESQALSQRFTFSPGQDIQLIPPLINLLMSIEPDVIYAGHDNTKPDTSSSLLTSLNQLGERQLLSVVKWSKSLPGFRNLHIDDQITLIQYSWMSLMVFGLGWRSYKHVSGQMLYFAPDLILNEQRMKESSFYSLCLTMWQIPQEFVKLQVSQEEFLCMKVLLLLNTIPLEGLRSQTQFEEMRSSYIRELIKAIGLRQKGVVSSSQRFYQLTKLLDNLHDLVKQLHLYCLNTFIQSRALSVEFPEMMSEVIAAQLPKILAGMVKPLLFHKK

Glucocorticoid receptor [2] = molecular target: T3, Glucocorticoid receptor (Homo sapiens, UniProt P04150); assay: Antagonist activity at human GR; format: functional
T3 sequence (P04150 whole entry): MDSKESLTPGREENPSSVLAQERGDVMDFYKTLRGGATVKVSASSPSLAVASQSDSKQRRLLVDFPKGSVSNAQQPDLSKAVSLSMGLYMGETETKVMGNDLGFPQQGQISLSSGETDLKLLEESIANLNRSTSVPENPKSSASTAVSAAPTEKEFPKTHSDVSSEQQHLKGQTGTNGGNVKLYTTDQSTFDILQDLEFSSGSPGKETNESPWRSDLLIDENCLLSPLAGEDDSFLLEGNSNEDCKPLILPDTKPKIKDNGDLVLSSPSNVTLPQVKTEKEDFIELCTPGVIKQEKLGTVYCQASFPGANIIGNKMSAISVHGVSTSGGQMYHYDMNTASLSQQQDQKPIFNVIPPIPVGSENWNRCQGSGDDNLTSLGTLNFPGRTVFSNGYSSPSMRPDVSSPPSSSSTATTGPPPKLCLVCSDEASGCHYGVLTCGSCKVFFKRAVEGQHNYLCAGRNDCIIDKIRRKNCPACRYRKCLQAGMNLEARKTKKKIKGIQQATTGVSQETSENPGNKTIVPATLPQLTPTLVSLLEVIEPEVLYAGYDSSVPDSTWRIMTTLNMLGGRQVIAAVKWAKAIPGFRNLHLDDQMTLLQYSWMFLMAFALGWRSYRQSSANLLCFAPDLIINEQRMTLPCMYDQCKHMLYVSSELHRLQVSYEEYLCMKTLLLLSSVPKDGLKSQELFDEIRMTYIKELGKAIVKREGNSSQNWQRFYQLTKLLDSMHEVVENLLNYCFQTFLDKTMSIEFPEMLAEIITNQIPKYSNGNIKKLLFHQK

Glucocorticoid receptor [3] = molecular target: T3, Glucocorticoid receptor; assay: Displacement of [3H]dexamethasone from human recombinant GR
[4] = molecular target: T4, Glucocorticoid receptor (Homo sapiens) (UniProt P04150); assay: Displacement of [3H]dexamethasone from glucocorticoid receptor at 1 uM
T4 sequence (whole entry): T3 sequence (P04150 whole entry)

Brain = assay: Drug level in rat brain at 1 mg/kg, iv; format: ADME, organism-based; design: dose 1 mg/kg, route intravenous; conditions: in vivo
Plasma = assay: Drug lavel in rat plasma at 1 mg/kg, iv; format: ADME, organism-based; design: dose 1 mg/kg, route intravenous; conditions: in vivo
[5] = Metabolic stability in human […] S9 fraction after 30 mins; format: ADME; conditions: read-out: Stability
[6] = AUC in rat at 5 mg/kg, po; format: ADME, organism-based; design: dose 5 mg/kg, route oral; conditions: plasma
CYP3A4 = CYP3A4 (Homo sapiens, UniProt P08684); assay: Inhibition of CYP3A4 at 1 uM; format: ADME
Chain of CYP3A4 (P08684 whole entry): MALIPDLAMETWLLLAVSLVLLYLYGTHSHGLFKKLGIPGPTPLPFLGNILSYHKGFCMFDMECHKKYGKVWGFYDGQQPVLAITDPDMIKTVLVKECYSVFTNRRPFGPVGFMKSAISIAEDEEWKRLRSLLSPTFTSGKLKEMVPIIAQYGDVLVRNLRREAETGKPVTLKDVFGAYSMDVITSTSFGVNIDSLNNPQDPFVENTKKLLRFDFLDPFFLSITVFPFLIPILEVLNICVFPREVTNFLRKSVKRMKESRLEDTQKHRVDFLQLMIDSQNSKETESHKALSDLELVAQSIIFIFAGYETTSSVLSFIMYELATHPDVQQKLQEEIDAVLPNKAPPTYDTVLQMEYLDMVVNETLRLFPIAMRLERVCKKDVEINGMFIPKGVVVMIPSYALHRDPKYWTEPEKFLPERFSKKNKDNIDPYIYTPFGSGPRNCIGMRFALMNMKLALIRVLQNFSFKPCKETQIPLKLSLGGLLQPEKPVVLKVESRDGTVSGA

[7] = Cmax in rat at 5 mg/kg, po; format: ADME, organism-based; design: dose 5 mg/kg, route oral; conditions: in vivo

pKi (Glucocorticoid receptor [2])	pKi (Glucocorticoid receptor [3])	Structure (SMILES)	further results
–	–	O=c1[nH]c(N2CCC(c3cccc(Cl)c3)CC2)c(Cc2ccccc2)c(=O)[nH]1	pKi [1]: 6.28
7.02	8.04	O=c1[nH]c(N2CCC(c3ccccc3)CC2)c(Cc2cccc(Cl)c2)c(=O)[nH]1	pKi (Progesterone receptor): 5.15
–	8.15	COc1ccccc1C1CCN(c2[nH]c(=O)[nH]c(=O)c2Cc2ccccc2)CC1	pKi [1]: 6.53
–	7.34	CC(=O)Nc1ccc(C2CCN(c3[nH]c(=O)[nH]c(=O)c3Cc3ccccc3)CC2)cc1	–
–	–	Cn1c(=O)[nH]c(N2CCC(CCCc3ccccc3)CC2)c(Cc2ccccc2)c1=O	inhibition [4]: 18%
–	7.35	COc1ccc(C2CCN(c3[nH]c(=O)[nH]c(=O)c3Cc3ccccc3)CC2)cc1	–
6.52	7.48	Cn1c(=O)[nH]c(N2CCC(Cc3ccccc3)CC2)c(Cc2ccccc2Br)c1=O	–
6.82	7.72	O=c1[nH]c(N2CCC(Cc3ccccc3)CC2)c(Cc2ccccc2)c(=O)[nH]1	–
–	–	CC(=O)Nc1cccc(C2CCN(c3[nH]c(=O)[nH]c(=O)c3Cc3ccccc3)CC2)c1	inhibition [4]: 11%
–	–	COc1cccc(Cc2c(N3CCC(c4ccccc4)CC3)[nH]c(=O)[nH]c2=O)c1	inhibition [4]: 31%
7.19	7.85	O=c1[nH]c(N2CCC(c3ccccc3)CC2)c(Cc2cccc(Br)c2)c(=O)[nH]1	–
–	7.43	N#Cc1cccc(Cc2c(N3CCC(c4ccccc4)CC3)[nH]c(=O)[nH]c2=O)c1	–
–	7.11	Cn1c(=O)[nH]c(N2CCC(Oc3ccccc3)CC2)c(Cc2ccccc2)c1=O	–
–	6.44	Cn1c(=O)[nH]c(N2CCC(O)(Cc3ccccc3)CC2)c(Cc2ccccc2)c1=O	–
7.03	8.09	O=c1[nH]c(N2CCC(c3ccccc3)CC2)c(Cc2ccccc2)c(=O)[nH]1	pKi [1]: 6.03; Drug uptake (Brain): 45 ng/g; Cp (Plasma): 178 ng/mL; remaining at 0.5 h [5]: 94%; AUC [6]: 600 ng·h/mL; inhibition at 1 µM (CYP3A4): 25%; Cmax [7]: 143 ng/mL
6.80	8.04	COc1cccc(C2CCN(c3[nH]c(=O)[nH]c(=O)c3Cc3ccccc3)CC2)c1	pKi [1]: 5.90
–	–	N#Cc1ccc(Cc2c(N3CCC(c4ccccc4)CC3)[nH]c(=O)[nH]c2=O)cc1	inhibition [4]: 37%
–	–	CC1CCN(c2[nH]c(=O)n(C)c(=O)c2Cc2ccccc2)CC1	inhibition [4]: 2%
–	–	Cn1c(=O)[nH]c(N2CCc3ccccc3C2)c(Cc2ccccc2)c1=O	inhibition [4]: 23%
–	–	Cn1c(N2CCC(Cc3ccccc3)CC2)c(Cc2ccccc2)c(=O)[nH]c1=O	inhibition [4]: 11%
6.59	7.51	O=c1[nH]c(N2CCC(c3ccccc3)CC2)c(Cc2ccc(Cl)cc2)c(=O)[nH]1	–
7.30	8.06	O=c1[nH]c(N2CCC(c3ccccc3)CC2)c(Cc2ccccc2Cl)c(=O)[nH]1	pKi [1]: 5.46
–	5.35	Cn1c(=O)[nH]c(N2CCC(O)CC2)c(Cc2cccc(C(F)(F)F)c2)c1=O	–
6.72	7.70	Cn1c(=O)[nH]c(N2CCC(c3ccccc3)CC2)c(Cc2ccccc2)c1=O	–
7.00	7.62	Cn1c(=O)[nH]c(N2CCC(Cc3ccccc3)CC2)c(Cc2ccccc2)c1=O	–
